Here are results for eight molecules from patent publication US20230098438A1, “OXAZINE-BASED WATER-SOLUBLE FLUOROPHORE COMPOUNDS FOR IN VIVO NERVE IMAGING” (Oregon Health & Science University, priority 2020, published 2023).

Entries after “also recorded” stand apart in the source; their conditions may differ.

In one series the test system is nerve tissue. To be noted: previous studies; fluorescence nerve imaging; cited from earlier work.
Series [1] can be described thus: NOAEL (no-observed-adverse-effect-level).
A short description of series [2]: Solubility testing in ultrapure water. To be noted: kinetic from dmso stock.
Method: Each compound was dissolved at high concentration (50 mg/mL) in dimethyl sulfoxide (DMSO) to create a stock solution. Stock solutions were spiked into ultrapure water beginning with a 50 μg/mL concentration and the aqueous solution was vortexed to mix. Resulting solutions were centrifuged at 15,000 rpm for 2 min and examined for a pellet or precipitation signifying insoluble compound.
Setting [3] is: no-observed-adverse-effect-level.

Usually NOAEL stands for the highest dose or exposure tested at which no adverse effect was seen. In general, solubility refers to how much of the substance goes into solution per volume. The low end stands for little dissolved substance, the high end for much dissolved substance. Turning to `CCNc1cc2oc3cc(=[N+](CC)CC)ccc-3nc2cc1C` [Comparative Example No. 1, 3-(diethyl-λ4-azaneylidene)-N-ethyl-8-methyl-3H-phenoxazin-7-amine, reference compound], the nerve specificity result in the series with nerve tissue was “high nerve specificity”. In series [1] (in vivo), this molecule had an NOAEL of 3 mg/kg. The same molecule returned a solubility in series [2] of 100 µg/mL.
Regarding `CCNc1cc2oc3c/c(=[N+](\CC)CCCS(=O)(=O)[O-])ccc-3nc2cc1C` [Example No. 1, (E)-3-(ethyl(7-(ethylamino)-8-methyl-3H-phenoxazin-3-ylidene)ammonio)propane-1-sulfonate], in series [1] (in vivo), the NOAEL is 30 mg/kg. Further, the solubility in series [2] is > 5000 µg/mL.
Taken in the same sequence, the figures for `CCNc1cc2oc3cc(=[N+](CCOCCOCCOC)CCOCCOCCOC)ccc-3nc2cc1C` [Example No. 9, N-(7-(ethylamino)-8-methyl-3H-phenoxazin-3-ylidene)-2-(2-(2-methoxyethoxy)ethoxy)-N-(2-(2-(2-methoxyethoxy)ethoxy)ethyl)ethan-1-aminium] were 30 mg/kg and > 5000 µg/mL.
With `CC/N=c1/cc2oc3cc(NCC)c(C)cc3nc-2cc1C` [Oxazine 4], the nerve specificity entry in the series with nerve tissue is listed as “high nerve-specificity; also recorded: high nerve specificity”.
Take “(E)-N-ethyl-N-(7-(ethylamino)-8-methyl-3H-phenoxazin-3-ylidene)-2-(2-(2-methoxyethoxy)ethoxy)ethan-1-aminium [Example No. 7]”: in series [1] (setting [3]), the “NOAEL” value is 5 mg/kg.
Same read-out and setting: under “(E)-N^1-ethyl-N^1-(7-(ethylamino)-8-methyl-3H-phenoxazin-3-ylidene)-N^3,N^3,N^3-trimethylpropane-1,3-diaminium [Example No. 2]” stands 2 mg/kg; under “N-(7-(ethylamino)-8-methyl-3H-phenoxazin-3-ylidene)-2-(2-methoxyethoxy)-N-(2-(2-methoxyethoxy)ethyl)ethan-1-aminium [Example No. 8]”, 10 mg/kg; under “N-(7-(ethylamino)-8-methyl-3H-phenoxazin-3-ylidene)-2-methoxy-N-(2-methoxyethyl)ethan-1-aminium [Example No. 5]”, 4 mg/kg.
